Consider 20 compounds from the supplement of paper PMC6331611.

In brackets after ≈: the same amount, converted by molar mass. Counter-ions that a name gives are not always drawn.

The subject of one test is RAW264.7. The test can be described thus: cytotoxicity (LDH release relative to maximum lysis); higher = more toxic. Particulars: 50 µM; 2 h. Background: LDH in the medium is a marker of cell lysis.
Test [1] concerns Salmonella enterica serovar Typhimurium SL1344.
For test [2] the test system is unchanged. Nature of the test: intracellular MIC (10-fold luminescence reduction); higher = less potent. The settings on record: RAW264.7 macrophages.

As a reminder, the MIC is the lowest concentration that inhibits growth of the organism. With `CC[C@H]1OC(=O)[C@H](C)C(=O)[C@H](C)[C@@H](O[C@@H]2O[C@H](C)C[C@H](N(C)C)[C@H]2O)[C@](C)(OC)C[C@@H](C)C(=O)[C@H](C)[C@H]2N(CCCCn3cnc(-c4cccnc4)c3)C(=O)O[C@]12C` [TELITHROMYCIN], the cytotoxicity in the test with RAW264.7 is 20.8%. Further, the values for the MIC in test [1] (LPM pH 5.8), in test [1] (MHB) and in test [1] (MOPS glucose minimal medium) were > 50 µM, 12.5 µM (≈ 10.2 µg/mL) and 12.5 µM (≈ 10.2 µg/mL), respectively. For the same compound, the “intracellular MIC” value in test [2] is ≤ 0.78 µM.

Consider `C[C@@H]1CN(c2c(F)c(F)c3c(=O)c(C(=O)O)cn(C4CC4)c3c2F)C[C@H](C)N1` [ORBIFLOXACIN], for which, in the test on RAW264.7, the cytotoxicity came to 15.3%. Besides, the MIC in test [1] (LPM pH 5.8) was 3.13 µM (≈ 1.24 µg/mL); in test [1] (MHB), 3.13 µM (≈ 1.24 µg/mL); in test [1] (MOPS glucose minimal medium) it was ≤ 0.78 µM. In addition, the “intracellular MIC” value in test [2] is ≤ 0.78 µM.

On to `C[C@@H](O)[C@H]1C(=O)N2C(C(=O)O)=C(S[C@@H]3CN[C@H](C(=O)N(C)C)C3)[C@H](C)[C@H]12` [MEROPENEM], for which the cytotoxicity in the test with RAW264.7 is 14.9%. Further, the MIC worked out at 3.13 µM (≈ 1.2 µg/mL) in test [1] (LPM pH 5.8), 12.5 µM (≈ 4.79 µg/mL) in test [1] (MHB) and 6.25 µM (≈ 2.4 µg/mL) in test [1] (MOPS glucose minimal medium). In test [2], the “intracellular MIC” value was 3.13 µM.

`Oc1c(Cl)cc(Cl)c2cccnc12` [CHLOROXINE]: in the test with RAW264.7, the cytotoxicity worked out at 20.5%. In addition, the MIC was ≤ 0.78 µM in test [1] (LPM pH 5.8), 25 µM (≈ 5.35 µg/mL) in test [1] (MHB) and 25 µM (≈ 5.35 µg/mL) in test [1] (MOPS glucose minimal medium). Moreover, the “intracellular MIC” value in test [2] is > 50 µM.

`CCOc1ccc(Cc2nccc3cc(OCC)c(OCC)cc23)cc1OCC` [ETHAVERINE HYDROCHLORIDE] gave a cytotoxicity in the test on RAW264.7 of 12.8%. Also, the MIC in test [1] (LPM pH 5.8), in test [1] (MHB) and in test [1] (MOPS glucose minimal medium) was > 50 µM throughout. Moreover, the “intracellular MIC” value in test [2] is > 50 µM.

Regarding `Cc1ccc(Nc2c(F)cccc2Cl)c(CC(=O)O)c1` [LUMIRACOXIB], in the test on RAW264.7, the cytotoxicity came to 7.05%. Moreover, the MIC in test [1] (LPM pH 5.8), in test [1] (MHB) and in test [1] (MOPS glucose minimal medium) was > 50 µM throughout. For the same compound, the “intracellular MIC” value in test [2] was ≤ 0.78 µM.

The compound `CC(=O)[C@H]1CC[C@H]2[C@@H]3C[C@H](C)C4=CC(=O)CC[C@]4(C)[C@H]3[C@@H](O)C[C@]12C` [MEDRYSONE] yielded a cytotoxicity with RAW264.7 of 7.6%. For the same compound, the minimum inhibitory concentration (MIC) in test [1] (LPM pH 5.8), in test [1] (MHB) and in test [1] (MOPS glucose minimal medium) was > 50 µM throughout. The “intracellular MIC” value in test [2] is > 50 µM.

`Nc1ccncc1` [FAMPRIDINE] displayed a cytotoxicity in the test with RAW264.7 of 20.4%. The MIC in test [1] (LPM pH 5.8), in test [1] (MHB) and in test [1] (MOPS glucose minimal medium) was > 50 µM in each case. Moreover, the “intracellular MIC” value in test [2] was > 50 µM.

For the compound `Oc1c(Br)cc(Br)c2cccnc12` [BROXYQUINOLINE], the cytotoxicity in the test on RAW264.7 amounted to 15%. Besides, the MIC in test [1] (LPM pH 5.8) is ≤ 0.78 µM; in test [1] (MHB), 50 µM (≈ 15.1 µg/mL); in test [1] (MOPS glucose minimal medium) it was 50 µM (≈ 15.1 µg/mL). For the same compound, the “intracellular MIC” value in test [2] is > 50 µM.

In the test with RAW264.7, `CCn1cc(C(=O)O)c(=O)c2cc3c(cc21)OCO3` [OXOLINIC ACID] registered a cytotoxicity of 6.86%. Moreover, the results for the MIC in test [1] (LPM pH 5.8), in test [1] (MHB) and in test [1] (MOPS glucose minimal medium) were 1.56 µM (≈ 0.408 µg/mL), 3.13 µM (≈ 0.818 µg/mL) and ≤ 0.78 µM, respectively. In addition, in test [2], the “intracellular MIC” value came out at 1.56 µM.

As to `COc1cc(Cc2cnc(N)nc2N)cc(OC)c1OC` [TRIMETHOPRIM], the cytotoxicity with RAW264.7 stood at 19.9%. Also, the MIC in test [1] (LPM pH 5.8) is 3.13 µM (≈ 0.909 µg/mL); in test [1] (MHB), ≤ 0.78 µM; in test [1] (MOPS glucose minimal medium) it was ≤ 0.78 µM. Moreover, the “intracellular MIC” value in test [2] is ≤ 0.78 µM.

`CCN1CCN(C(=O)N[C@@H](C(=O)N[C@@H]2C(=O)N3[C@@H]2SC(C)(C)[C@@H]3C(=O)O)c2ccccc2)C(=O)C1=O` [PIPERACILLIN SODIUM] gave a cytotoxicity with RAW264.7 of 7.66%. The MIC is 3.13 µM in test [1] (LPM pH 5.8), 12.5 µM in test [1] (MHB) and 6.25 µM in test [1] (MOPS glucose minimal medium). Further, the “intracellular MIC” value in test [2] came to 3.13 µM.

Consider `O=C1OCCN1/N=C/c1ccc([N+](=O)[O-])o1` [FURAZOLIDONE], for which the cytotoxicity with RAW264.7 was found to be 6.45%. Also, the figures for the MIC in test [1] (LPM pH 5.8), in test [1] (MHB) and in test [1] (MOPS glucose minimal medium) were 6.25 µM (≈ 1.41 µg/mL), 12.5 µM (≈ 2.81 µg/mL) and 12.5 µM (≈ 2.81 µg/mL), respectively. Moreover, in test [2], the “intracellular MIC” value was ≤ 0.78 µM.

In the test on RAW264.7, `CO/N=C(\C(=O)N[C@@H]1C(=O)N2C(C(=O)O)=C(C[N+]3(C)CCCC3)CS[C@H]12)c1csc(N)n1` [CEFEPIME HYDROCHLORIDE] showed a cytotoxicity of 15.4%. Also, the MIC in test [1] (LPM pH 5.8), in test [1] (MHB) and in test [1] (MOPS glucose minimal medium) was ≤ 0.78 µM in each case. Also, the “intracellular MIC” value in test [2] is ≤ 0.78 µM.

Consider `CCCCc1nc(Cl)c(CO)n1Cc1ccc(-c2ccccc2-c2nnn[nH]2)cc1` [LOSARTAN], for which the cytotoxicity in the test on RAW264.7 amounted to 5.92%. Also, the MIC in test [1] (LPM pH 5.8), in test [1] (MHB) and in test [1] (MOPS glucose minimal medium) was > 50 µM in each case. For the same compound, the “intracellular MIC” value in test [2] is > 50 µM.

For `Cc1nc2ccccc2n1Cc1ccc(Cl)cc1` [CHLORMIDAZOLE], the cytotoxicity in the test on RAW264.7 is 12.9%. Further, the MIC in test [1] (LPM pH 5.8), in test [1] (MHB) and in test [1] (MOPS glucose minimal medium) was > 50 µM in each case. The “intracellular MIC” value in test [2] was ≤ 0.78 µM.

For `C[C@H]1COc2c(C3(N)CC3)c(F)cc3c(=O)c(C(=O)O)cn1c23` [PAZUFLOXACIN MESYLATE], the cytotoxicity in the test with RAW264.7 came out at 12.2%. The MIC in test [1] (LPM pH 5.8), in test [1] (MHB) and in test [1] (MOPS glucose minimal medium) was ≤ 0.78 µM throughout. In addition, the “intracellular MIC” value in test [2] is ≤ 0.78 µM.

For the compound `CCn1cc(C(=O)O)c(=O)c2ccc(C)nc21` [NALIDIXIC ACID], the cytotoxicity with RAW264.7 is 16%. Besides, the MIC in test [1] (LPM pH 5.8) is ≤ 0.78 µM; in test [1] (MHB) it was 25 µM (≈ 5.81 µg/mL); in test [1] (MOPS glucose minimal medium), 6.25 µM (≈ 1.45 µg/mL). Further, the “intracellular MIC” value in test [2] was > 50 µM.

In the case of `CCn1cc(C(=O)O)c(=O)c2cc(F)c(N3CCNCC3)nc21` [ENOXACIN], in the test with RAW264.7, the cytotoxicity was 20.8%. For the same compound, the MIC is 6.25 µM (≈ 2 µg/mL) in test [1] (LPM pH 5.8), ≤ 0.78 µM in test [1] (MHB) and ≤ 0.78 µM in test [1] (MOPS glucose minimal medium). In addition, the “intracellular MIC” value in test [2] came out at 3.13 µM.

In the case of `C[C@H]1O[C@@H](n2cc(F)c(=O)[nH]c2=O)[C@H](O)[C@@H]1O` [DOXIFLURIDINE], in the test on RAW264.7, the cytotoxicity was 13%. Further, the MIC in test [1] (LPM pH 5.8) was ≤ 0.78 µM; in test [1] (MHB) it was > 50 µM; in test [1] (MOPS glucose minimal medium) it was 1.56 µM (≈ 0.384 µg/mL). Further, the “intracellular MIC” value in test [2] was 6.25 µM.
